Experimental data published in ChEMBL document CHEMBL1133280, “Discovery and synthesis of a potent sulfonamide ET(B) selective antagonist” (Bioorg Med Chem Lett, 2000).

Legend:
[1] = molecular target: T1, Endothelin receptor type B (Sus scrofa, UniProt P35463); experiment: Binding affinity towards displacement of [125 I] ET-3 from COS-7 cells transfected with porcine Endothelin B receptor; format: cell-based
T1 sequence (P35463 whole entry): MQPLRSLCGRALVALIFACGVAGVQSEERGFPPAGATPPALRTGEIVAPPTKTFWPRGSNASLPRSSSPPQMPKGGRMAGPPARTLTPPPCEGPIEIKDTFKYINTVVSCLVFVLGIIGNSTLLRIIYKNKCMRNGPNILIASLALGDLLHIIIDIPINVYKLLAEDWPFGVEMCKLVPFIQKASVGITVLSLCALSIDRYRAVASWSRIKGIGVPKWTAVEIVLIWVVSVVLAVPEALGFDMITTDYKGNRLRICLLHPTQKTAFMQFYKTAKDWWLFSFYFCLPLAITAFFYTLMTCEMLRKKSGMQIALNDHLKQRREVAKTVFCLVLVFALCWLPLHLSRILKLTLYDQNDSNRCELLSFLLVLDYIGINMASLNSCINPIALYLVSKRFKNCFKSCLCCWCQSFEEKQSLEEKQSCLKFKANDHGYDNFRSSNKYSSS

Endothelin-1 receptor = molecular target: T2, Endothelin-1 receptor (Rattus norvegicus, UniProt P26684); experiment: Displacement of [125 I] ET-1 from rat aortic smooth muscle A7r5 cells transfected with Endothelin A receptor; format: cell-based
T2 sequence (P26684 whole entry): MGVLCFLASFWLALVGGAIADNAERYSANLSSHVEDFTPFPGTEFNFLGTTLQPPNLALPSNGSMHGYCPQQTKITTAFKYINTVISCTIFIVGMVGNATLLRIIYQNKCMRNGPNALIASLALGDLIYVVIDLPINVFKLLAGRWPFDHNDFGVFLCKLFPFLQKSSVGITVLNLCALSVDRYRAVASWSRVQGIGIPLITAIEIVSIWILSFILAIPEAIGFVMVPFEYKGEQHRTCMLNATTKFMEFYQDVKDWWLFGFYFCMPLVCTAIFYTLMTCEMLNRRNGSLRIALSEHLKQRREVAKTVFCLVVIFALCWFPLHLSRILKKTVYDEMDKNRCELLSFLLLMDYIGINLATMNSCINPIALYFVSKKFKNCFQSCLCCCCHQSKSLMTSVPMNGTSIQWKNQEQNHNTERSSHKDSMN

[2] = Ratio of IC50 of rat ETA receptor to that of porcine ETB receptor

IC50 [1] | IC50 (Endothelin-1 receptor) | Ratio [2] | Structure (SMILES)
0.31 µM | 0.4 µM | 1.3 | COC(=O)CCCc1onc(NS(=O)(=O)c2ccc(C(C)(C)C)cc2)c1Sc1cccc(OC)c1
0.5 µM | – | 8.6 | COc1cccc(Sc2c(NS(=O)(=O)c3ccc(C(C)(C)C)cc3)noc2CCCC(=O)O)c1
0.02 µM | 1.4 µM | 70 | COc1cccc(Sc2c(NS(=O)(=O)c3ccc(C(C)(C)C)cc3)noc2CCCCC=O)c1
0.24 µM | 6.3 µM | 26 | COc1cccc(Sc2c(NS(=O)(=O)c3ccc(C(C)(C)C)cc3)noc2CCCC(N)=O)c1
0.4 µM | 1.3 µM | 3.3 | COc1cccc(Sc2c(NS(=O)(=O)c3ccc(C(C)(C)C)cc3)noc2CCCC(C)=O)c1
0.43 µM | 0.77 µM | 1.8 | COc1cccc(Sc2c(NS(=O)(=O)c3ccc(C(C)(C)C)cc3)noc2CCO)c1
0.24 µM | 0.63 µM | 2.6 | COc1cccc(Sc2c(NS(=O)(=O)c3ccc(C(C)(C)C)cc3)noc2CCCCO)c1
0.085 µM | 1.5 µM | 18 | COc1cccc(Sc2c(NS(=O)(=O)c3ccc(C(C)(C)C)cc3)noc2CCC/C=N/O)c1
0.52 µM | 1.3 µM | 2.5 | COc1cccc(Sc2c(NS(=O)(=O)c3ccc(C(C)(C)C)cc3)noc2CCCC#N)c1
0.002 µM | 1.7 µM | 850 | COc1cccc(Sc2c(NS(=O)(=O)c3ccc(C(C)(C)C)cc3)noc2CCCC=O)c1
0.56 µM | 6.2 µM | 11 | COc1cccc(Sc2c(NS(=O)(=O)c3ccc(C(C)(C)C)cc3)noc2CO)c1
0.5 µM | 0.38 µM | 0.8 | COc1cccc(Sc2c(NS(=O)(=O)c3ccc(C(C)(C)C)cc3)noc2CCC=O)c1
0.14 µM | 0.32 µM | 2.3 | COc1cccc(Sc2c(NS(=O)(=O)c3ccc(C(C)(C)C)cc3)noc2CCCO)c1

The remaining lines, values behind:

Structure (SMILES) | IC50 [1] | IC50 (Endothelin-1 receptor) | Ratio [2]
Cc1onc(NS(=O)(=O)c2ccc(C(C)(C)C)cc2)c1C | – | 28 µM | –
Cc1onc(NS(=O)(=O)c2ccc(N)cc2)c1Cl | – | 3.5 µM | –
COc1cccc(Sc2c(NS(=O)(=O)c3ccc(C(C)(C)C)cc3)noc2C)c1 | 0.3 µM | 0.53 µM | 1.8
CCc1c(NS(=O)(=O)c2ccc(N)cc2)noc1C | – | 3.4 µM | –
Cc1snc(NS(=O)(=O)c2ccc(N)cc2)c1C | – | 28 µM | –
Cc1onc(NS(=O)(=O)c2ccc(C(C)(C)C)cc2)c1I | 30 µM | > 100 µM | –
CCc1onc(NS(=O)(=O)c2ccc(C(C)(C)C)cc2)c1Sc1cccc(OC)c1 | 2.8 µM | 0.8 µM | 0.3
Cc1onc(NS(=O)(=O)c2ccc(N)cc2)c1I | > 1000 µM | 11 µM | –
Cc1nsc(NS(=O)(=O)c2ccc(C(C)(C)C)cc2)c1C | – | > 500 µM | –
CSc1c(NS(=O)(=O)c2ccc(C(C)(C)C)cc2)noc1C | 35 µM | > 100 µM | –
Cc1onc(NS(=O)(=O)c2ccc(N)cc2)c1Cc1ccccc1 | – | 71 µM | –
